Results: patent publication US9278922B2 (ABBVIE INC., priority 2009, dated 2016)

What follows are compounds tested on HCV 1b-Con-1 replicon (assay: HCV 1b-Con-1 replicon assay (luciferase reporter gene, HuH-7 cells)). Details: Hepatitis C virus, Huh-7, luciferase reporter gene activity in the replicon, in the presence of 5% FBS.
Type: cell-based, Hepatitis C virus (HCV) genotype 1b-Con1
`COC(=O)N[C@H](C(=O)N1CC=C[C@H]1C(=O)Nc1ccc(CN(Cc2ccc(NC(=O)[C@@H]3C=CCN3C(=O)[C@@H](NC(=O)OC)C(C)(C)C)cc2)c2ccc(F)cc2)cc1)C(C)(C)C` [Example 125, methyl [(1S)-1-{[(2S)-2-{[4-({(4-fluorophenyl)[4-({[(2S)-1-{(2S)-2-[(methoxycarbonyl)amino]-3,3-dimethylbutanoyl}-2,5-dihydro-1H-pyrrol-2-yl]carbonyl}amino)benzyl]amino}methyl)phenyl]carbamoyl}-2,5-dihydro-1H-pyrrol-1-yl]carbonyl}-2,2-dimethylpropyl]carbamate] was tested, and the EC50 was < 1 nM. For `O=C(Nc1ccc(CN(Cc2ccc(NC(=O)[C@@H]3COCN3C(=O)OCc3ccccc3)cc2)c2ccc(F)cc2)cc1)[C@@H]1COCN1C(=O)OCc1ccccc1` [Example 126, dibenzyl (4S,4′S)-4,4′-{[(4-fluorophenyl)imino]bis(methanediylbenzene-4,1-diylcarbamoyl)}bis(1,3-oxazolidine-3-carboxylate)], the EC50 was 10 to 100 nM. In the case of `O=C(Nc1ccc(CN(Cc2ccc(NC(=O)[C@@H]3C[C@H](O)CN3C(=O)[C@@H](c3ccccc3)N3CCCCC3)cc2)c2ccc(F)cc2)cc1)[C@@H]1C[C@H](O)CN1C(=O)[C@@H](c1ccccc1)N1CCCCC1` [Example 127, (2S,4S,2′S,4′S)-N,N′-{[(4-fluorophenyl)imino]bis(methanediylbenzene-4,1-diyl)}bis{4-hydroxy-1-[(2R)-2-phenyl-2-piperidin-1-ylacetyl]pyrrolidine-2-carboxamide}], the EC50 is reported as < 1 nM. `CCN[C@@H](C(=O)N1CCC[C@H]1C(=O)Nc1ccc(CN(Cc2ccc(NC(=O)[C@@H]3CCCN3C(=O)[C@H](NCC)c3ccccc3)cc2)c2ccc(F)cc2)cc1)c1ccccc1` [Example 131, (2S,2′S)-N,N′-{[(4-fluorophenyl)imino]bis(methanediylbenzene-4,1-diyl)}bis{1-[(2R)-2-(ethylamino)-2-phenylacetyl]pyrrolidine-2-carboxamide}] was tested, and the EC50 was < 1 nM. For `CCN(C(C)C)[C@@H](C(=O)N1CCC[C@H]1C(=O)Nc1ccc(CN(Cc2ccc(NC(=O)[C@@H]3CCCN3C(=O)[C@@H](c3ccccc3)N(CC)C(C)C)cc2)c2ccc(F)cc2)cc1)c1ccccc1` [Example 132, (2S,2′S)-N,N′-{[(4-fluorophenyl)imino]bis(methanediylbenzene-4,1-diyl)}bis(1-{(2R)-2-[ethyl(1-methylethyl)amino]-2-phenylacetyl}pyrrolidine-2-carboxamide)], the EC50 was < 1 nM. For `COC(=O)N[C@H](C(=O)N1CCC[C@H]1C(=O)Nc1ccc(CN(Cc2ccc(NC(=O)[C@@H]3CCCN3C(=O)[C@@H](NC(=O)OC)C3CCCC3)cc2)c2ccc(F)cc2)cc1)C1CCCC1` [Example 133, dimethyl ([(4-fluorophenyl)imino]bis{methanediylbenzene-4,1-diylcarbamoyl(2S)pyrrolidine-2,1-diyl[(1S)-1-cyclopentyl-2-oxoethane-2,1-diyl]})biscarbamate], the EC50 was < 1 nM. Compound `COC(=O)N[C@@H](CCO)C(=O)N1CCC[C@H]1C(=O)Nc1ccc(CN(Cc2ccc(NC(=O)[C@@H]3CCCN3C(=O)[C@H](CCO)NC(=O)OC)cc2)c2ccc(F)cc2)cc1` [Example 134, dimethyl ([(4-fluorophenyl)imino]bis{methanediylbenzene-4,1-diylcarbamoyl(2S)pyrrolidine-2,1-diyl[(2S)-4-hydroxy-1-oxobutane-1,2-diyl]})biscarbamate] has an EC50 of 1 to 10 nM. `CCC(CC)[C@H](NC(=O)OC)C(=O)N1CCC[C@H]1C(=O)Nc1ccc(CN(Cc2ccc(NC(=O)[C@@H]3CCCN3C(=O)[C@@H](NC(=O)OC)C(CC)CC)cc2)c2ccc(F)cc2)cc1` [Example 135] gave an EC50 of 1 to 10 nM. `COC(=O)N[C@H](C(=O)N1C[C@@H](O)C[C@H]1C(=O)Nc1ccc(CN(Cc2ccc(NC(=O)[C@@H]3C[C@H](O)CN3C(=O)[C@@H](NC(=O)OC)C(C)(C)C)cc2)c2ccc(F)cc2)cc1)C(C)(C)C` [Example 136] was tested, and the EC50 was < 1 nM. In the case of `O=C(Nc1ccc(CN(Cc2ccc(NC(=O)[C@@H]3CCCN3C(=O)[C@@H](c3ccccc3)N3CCCCC3)cc2)c2ccc(F)c(F)c2)cc1)[C@@H]1CCCN1C(=O)[C@@H](c1ccccc1)N1CCCCC1` [Example 137, (2S,2′S)-N,N′-{[(3,4-difluorophenyl)imino]bis(methanediylbenzene-4,1-diyl)}bis{1-[(2R)-2-phenyl-2-piperidin-1-ylacetyl]pyrrolidine-2-carboxamide}], the EC50 is reported as < 1 nM. With `COC(=O)N[C@H](C(=O)N1CC[C@H](O)[C@H]1C(=O)Nc1ccc(CN(Cc2ccc(NC(=O)[C@@H]3[C@@H](O)CCN3C(=O)[C@@H](NC(=O)OC)C(C)(C)C)cc2)c2ccc(F)cc2)cc1)C(C)(C)C` [Example 141] the EC50 was 10 to 100 nM. With `COC(=O)N[C@H](C(=O)N1C(C)CC[C@H]1C(=O)Nc1ccc(CN(Cc2ccc(NC(=O)[C@@H]3CCC(C)N3C(=O)[C@H](NC(=O)OC)C(C)(C)C)cc2)c2ccc(F)cc2)cc1)C(C)(C)C` (stereo partly drawn) [Example 142, methyl [(1R)-1-{[(2S)-2-{[4-({(4-fluorophenyl)[4-({[(2S)-1-{(2S)-2-[(methoxycarbonyl)amino]-3,3-dimethylbutanoyl}-5-methylpyrrolidin-2-yl]carbonyl}amino)benzyl]amino}methyl)phenyl]carbamoyl}-5-methylpyrrolidin-1-yl]carbonyl}-2,2-dimethylpropyl]carbamate] the EC50 was < 1 nM. In the case of `COC(=O)N[C@H](C(=O)N1CCC[C@H]1C(=O)Nc1cccc(CN(Cc2cccc(NC(=O)[C@@H]3CCCN3C(=O)[C@@H](NC(=O)OC)C(C)(C)C)c2)c2ccc(F)cc2)c1)C(C)(C)C` [Example 143, dimethyl ([(4-fluorophenyl)imino]bis{methanediylbenzene-3,1-diylcarbamoyl(2S)pyrrolidine-2,1-diyl[(2S)-3,3-dimethyl-1-oxobutane-1,2-diyl]})biscarbamate], the EC50 is reported as < 1 nM. `COC(=O)N1CCOC[C@H]1C(=O)N1CCC[C@H]1C(=O)Nc1ccc(CN(Cc2ccc(NC(=O)[C@@H]3CCCN3C(=O)[C@@H]3COCCN3C(=O)OC)cc2)c2ccc(F)cc2)cc1` [Example 144, dimethyl (3S,3′S)-3,3′-{[(4-fluorophenyl)imino]bis[methanediylbenzene-4,1-diylcarbamoyl(2S)pyrrolidine-2,1-diylcarbonyl]}dimorpholine-4-carboxylate] gave an EC50 of 100 to 250 nM. `COC(=O)N[C@H](C(=O)N1CC[C@H](C)[C@H]1C(=O)Nc1ccc(CN(Cc2ccc(NC(=O)[C@@H]3[C@@H](C)CCN3C(=O)[C@@H](NC(=O)OC)C(C)(C)C)cc2)c2ccc(F)cc2)cc1)C(C)(C)C` [Example 145] was tested, and the EC50 was < 1 nM. Compound `COC(=O)N[C@H](C(=O)N1CCC[C@H]1C(=O)Nc1cccc(CN(Cc2cccc(NC(=O)[C@@H]3CCCN3C(=O)[C@@H](NC(=O)OC)C(C)C)c2)c2ccc(F)cc2)c1)C(C)C` [Example 146, dimethyl ([(4-fluorophenyl)imino]bis{methanediylbenzene-3,1-diylcarbamoyl(2S)pyrrolidine-2,1-diyl[(2S)-3-methyl-1-oxobutane-1,2-diyl]})biscarbamate] has an EC50 of 1 to 10 nM. Compound `COC(=O)N[C@H](C(=O)N1CCC[C@H]1C(=O)Nc1cc(CN(Cc2ccc(OC)c(NC(=O)[C@@H]3CCCN3C(=O)[C@@H](NC(=O)OC)C(C)(C)C)c2)c2ccc(F)cc2)ccc1OC)C(C)(C)C` [Example 147, dimethyl ([(4-fluorophenyl)imino]bis{methanediyl(6-methoxybenzene-3,1-diyl)carbamoyl(2S)pyrrolidine-2,1-diyl[(2S)-3,3-dimethyl-1-oxobutane-1,2-diyl]})biscarbamate] has an EC50 of 100 to 250 nM. For `COC(=O)N[C@H](C(=O)N1CCC[C@H]1c1nc2cc(CN(Cc3ccc4oc([C@@H]5CCCN5C(=O)[C@@H](NC(=O)OC)C(C)C)nc4c3)c3ccccc3)ccc2o1)C(C)C` [Example 148, methyl [(1S)-1-{[(2S)-2-(5-{[({2-[(2S)-1-{(2S)-2-[(methoxycarbonyl)amino]-3-methylbutanoyl}pyrrolidin-2-yl]-1,3-benzoxazol-5-yl}methyl)(phenyl)amino]methyl}-1,3-benzoxazol-2-yl)pyrrolidin-1-yl]carbonyl}-2-methylpropyl]carbamate], the EC50 was 100 to 250 nM. `COC(=O)N[C@H](C(=O)N1CCC[C@H]1/C=C/c1ccc(CN(Cc2ccc(NC(=O)[C@@H]3CCCN3C(=O)[C@@H](NC(=O)OC)C(C)(C)C)cc2)c2ccccc2)cc1)C(C)(C)C` [Example 149, N-(methoxycarbonyl)-3-methyl-L-valyl-N-(4-{[{4-[(E)-2-{(2S)-1-[N-(methoxycarbonyl)-3-methyl-L-valyl]pyrrolidin-2-yl}ethenyl]benzyl}(phenyl)amino]methyl}phenyl)-L-prolinamide] showed an EC50 of 10 to 100 nM. Work on `O=C(Nc1ccc(CN(Cc2ccc(NC(=O)[C@@H]3CCCN3C(=O)O[C@H]3CCOC3)cc2)c2ccccc2)cc1)[C@@H]1CCCN1C(=O)O[C@H]1CCOC1` [Example 150, di[(3S)-tetrahydrofuran-3-yl](2S,2′S)-2,2′-[(phenylimino)bis(methanediylbenzene-4,1-diylcarbamoyl)]dipyrrolidine-1-carboxylate] yielded an EC50 of 10 to 100 nM.
